Reference: patent US20050165029A1, “Pyrrolopyrimidine derivatives and analogs and their use in the treatment and prevention of diseases” (Ambit Biosciences Corporation, priority 2004, published 2005)

Tests used:
ABL2 = molecular target: T1, ABL2 (Homo sapiens, UniProt P42684); test: ABL2 (DKIN) binding assay
T1 construct: made in house; host or cells: T7 bacteriophage display
From the text: (§1) Methods for measuring binding affinities for interactions between small molecules and kinases including FLT3, c-KIT, ABL(T334I) [a.k.a. ABL(T315I)], VEGFR-2 (a.k.a. KDR), and EGFR are described in detail in U.S. application Ser. No. 10/873,835, which is incorporated by reference herein in its entirety. The components of the assays include human kinases expressed as fusions to T7 bacteriophage particles and immobilized ligands that bind to the ATP site of the kinases. […] If the test compound binds the kinase it competes with the immobilized ligand and prevents binding to the solid support. […] The results are read out by quantitating the amount of fusion protein bound to the solid support, which is accomplished by either traditional phage plaque assays or by quantitative PCR (qPCR) using the phage genome as a template. […] The concentration of test molecule that reduces the number of phage bound to the solid support by 50% is equal to the Kd for the interaction between the kinase and the test molecule. Typically, data are collected for twelve concentrations of test compound and, the resultant binding curve is fit to a non-cooperative binding isotherm to calculate Kd.
(§2) Described in the exemplary assays below is data from binding with varying kinases. […] The term “ND” represents non-determined values.

TNIK = molecular target: T2, TNIK (Homo sapiens, UniProt Q9UKE5); test: TNIK (DKIN) Binding Assay
T2 construct: made in house; host or cells: T7 bacteriophage display
From the text: as §1, §2

PLK 4 = molecular target: T3, PLK 4 (Homo sapiens, UniProt O00444); test: PLK 4 (SKIN) Binding Assay
T3 construct: made in house; host or cells: T7 bacteriophage display
T3 sequence (O00444 1-970): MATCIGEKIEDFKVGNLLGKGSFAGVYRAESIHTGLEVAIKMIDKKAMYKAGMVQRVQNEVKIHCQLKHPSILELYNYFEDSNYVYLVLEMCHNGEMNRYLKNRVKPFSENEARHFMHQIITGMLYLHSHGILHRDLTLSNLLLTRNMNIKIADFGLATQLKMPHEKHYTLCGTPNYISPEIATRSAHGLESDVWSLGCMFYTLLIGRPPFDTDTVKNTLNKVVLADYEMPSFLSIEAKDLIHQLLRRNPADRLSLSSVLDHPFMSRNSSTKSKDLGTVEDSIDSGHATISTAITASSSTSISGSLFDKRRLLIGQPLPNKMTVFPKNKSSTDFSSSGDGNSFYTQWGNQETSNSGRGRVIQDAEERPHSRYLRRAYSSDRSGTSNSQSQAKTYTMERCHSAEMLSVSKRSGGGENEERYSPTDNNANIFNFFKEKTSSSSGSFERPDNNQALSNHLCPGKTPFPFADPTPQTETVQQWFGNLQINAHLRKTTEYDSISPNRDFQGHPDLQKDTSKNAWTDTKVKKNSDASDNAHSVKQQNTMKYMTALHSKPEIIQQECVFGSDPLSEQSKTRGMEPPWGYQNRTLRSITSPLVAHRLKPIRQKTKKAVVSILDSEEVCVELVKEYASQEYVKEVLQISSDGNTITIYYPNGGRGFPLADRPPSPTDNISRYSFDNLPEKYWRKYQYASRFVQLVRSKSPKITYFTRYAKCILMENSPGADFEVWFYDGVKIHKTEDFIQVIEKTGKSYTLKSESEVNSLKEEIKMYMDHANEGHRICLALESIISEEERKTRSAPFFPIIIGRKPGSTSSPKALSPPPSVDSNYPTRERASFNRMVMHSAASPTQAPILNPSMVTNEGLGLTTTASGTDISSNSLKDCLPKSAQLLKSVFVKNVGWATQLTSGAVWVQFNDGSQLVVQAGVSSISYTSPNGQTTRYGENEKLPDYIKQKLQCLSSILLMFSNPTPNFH
From the text: as §1, §2

MARK2 = molecular target: T4, MARK2 (Homo sapiens, UniProt Q7KZI7); test: MARK2 (SKIN) Binding Assay
T4 construct: made in house; host or cells: T7 bacteriophage display
From the text: as §1, §2

T4 sequence (Q7KZI7 whole entry): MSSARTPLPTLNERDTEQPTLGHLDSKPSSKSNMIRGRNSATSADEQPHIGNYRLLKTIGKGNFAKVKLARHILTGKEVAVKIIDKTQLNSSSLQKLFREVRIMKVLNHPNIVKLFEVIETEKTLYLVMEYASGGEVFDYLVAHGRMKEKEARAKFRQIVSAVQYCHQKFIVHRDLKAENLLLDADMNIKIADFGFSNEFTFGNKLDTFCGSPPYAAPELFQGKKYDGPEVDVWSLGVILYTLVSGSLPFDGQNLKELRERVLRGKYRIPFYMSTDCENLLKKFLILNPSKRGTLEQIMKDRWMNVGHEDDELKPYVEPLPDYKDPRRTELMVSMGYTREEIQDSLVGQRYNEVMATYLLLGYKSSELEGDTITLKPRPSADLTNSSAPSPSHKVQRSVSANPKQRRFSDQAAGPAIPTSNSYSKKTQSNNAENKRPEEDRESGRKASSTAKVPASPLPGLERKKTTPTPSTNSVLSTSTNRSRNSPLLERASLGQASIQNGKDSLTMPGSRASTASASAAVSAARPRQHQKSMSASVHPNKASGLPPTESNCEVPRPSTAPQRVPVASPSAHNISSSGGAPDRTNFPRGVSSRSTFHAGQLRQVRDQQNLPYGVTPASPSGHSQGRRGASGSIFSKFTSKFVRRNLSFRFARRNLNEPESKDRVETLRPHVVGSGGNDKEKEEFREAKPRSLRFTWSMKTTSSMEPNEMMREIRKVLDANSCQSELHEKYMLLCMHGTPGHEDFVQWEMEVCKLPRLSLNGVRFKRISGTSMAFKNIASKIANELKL
T2 sequence (Q9UKE5 whole entry): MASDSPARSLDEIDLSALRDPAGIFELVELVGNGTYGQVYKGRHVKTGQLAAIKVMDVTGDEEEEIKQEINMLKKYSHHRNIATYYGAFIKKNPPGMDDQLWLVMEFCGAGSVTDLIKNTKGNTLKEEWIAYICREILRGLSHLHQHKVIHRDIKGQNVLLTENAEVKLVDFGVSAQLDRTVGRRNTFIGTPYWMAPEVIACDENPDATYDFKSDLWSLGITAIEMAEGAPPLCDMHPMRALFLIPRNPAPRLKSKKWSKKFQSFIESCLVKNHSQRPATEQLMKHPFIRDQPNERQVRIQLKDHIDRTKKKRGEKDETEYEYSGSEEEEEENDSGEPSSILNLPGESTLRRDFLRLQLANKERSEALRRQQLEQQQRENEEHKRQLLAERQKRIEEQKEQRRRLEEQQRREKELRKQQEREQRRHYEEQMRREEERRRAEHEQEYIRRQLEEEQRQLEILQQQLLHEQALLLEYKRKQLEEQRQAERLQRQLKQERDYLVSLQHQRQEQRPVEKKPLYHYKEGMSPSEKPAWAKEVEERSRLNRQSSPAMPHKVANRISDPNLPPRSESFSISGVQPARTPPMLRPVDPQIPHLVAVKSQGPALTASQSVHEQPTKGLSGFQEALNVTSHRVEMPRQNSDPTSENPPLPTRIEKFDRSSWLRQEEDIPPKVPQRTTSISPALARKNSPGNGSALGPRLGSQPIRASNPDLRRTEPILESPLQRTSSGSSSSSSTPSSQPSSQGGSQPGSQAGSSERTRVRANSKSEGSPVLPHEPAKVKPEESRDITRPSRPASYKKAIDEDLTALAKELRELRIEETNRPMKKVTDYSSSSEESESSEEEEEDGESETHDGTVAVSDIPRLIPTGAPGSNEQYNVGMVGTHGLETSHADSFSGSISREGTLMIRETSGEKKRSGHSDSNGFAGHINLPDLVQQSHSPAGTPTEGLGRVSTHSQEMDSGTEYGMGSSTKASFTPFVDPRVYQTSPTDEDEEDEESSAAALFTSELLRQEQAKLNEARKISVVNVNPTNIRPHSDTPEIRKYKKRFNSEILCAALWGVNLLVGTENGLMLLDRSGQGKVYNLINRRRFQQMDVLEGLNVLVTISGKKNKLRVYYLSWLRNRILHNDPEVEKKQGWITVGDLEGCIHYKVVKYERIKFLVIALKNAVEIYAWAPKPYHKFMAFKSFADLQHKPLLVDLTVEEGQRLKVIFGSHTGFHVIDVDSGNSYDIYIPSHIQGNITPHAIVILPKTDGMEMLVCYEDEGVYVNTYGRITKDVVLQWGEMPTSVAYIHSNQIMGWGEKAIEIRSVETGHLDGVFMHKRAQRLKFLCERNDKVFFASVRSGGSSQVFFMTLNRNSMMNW
T1 sequence (P42684 whole entry): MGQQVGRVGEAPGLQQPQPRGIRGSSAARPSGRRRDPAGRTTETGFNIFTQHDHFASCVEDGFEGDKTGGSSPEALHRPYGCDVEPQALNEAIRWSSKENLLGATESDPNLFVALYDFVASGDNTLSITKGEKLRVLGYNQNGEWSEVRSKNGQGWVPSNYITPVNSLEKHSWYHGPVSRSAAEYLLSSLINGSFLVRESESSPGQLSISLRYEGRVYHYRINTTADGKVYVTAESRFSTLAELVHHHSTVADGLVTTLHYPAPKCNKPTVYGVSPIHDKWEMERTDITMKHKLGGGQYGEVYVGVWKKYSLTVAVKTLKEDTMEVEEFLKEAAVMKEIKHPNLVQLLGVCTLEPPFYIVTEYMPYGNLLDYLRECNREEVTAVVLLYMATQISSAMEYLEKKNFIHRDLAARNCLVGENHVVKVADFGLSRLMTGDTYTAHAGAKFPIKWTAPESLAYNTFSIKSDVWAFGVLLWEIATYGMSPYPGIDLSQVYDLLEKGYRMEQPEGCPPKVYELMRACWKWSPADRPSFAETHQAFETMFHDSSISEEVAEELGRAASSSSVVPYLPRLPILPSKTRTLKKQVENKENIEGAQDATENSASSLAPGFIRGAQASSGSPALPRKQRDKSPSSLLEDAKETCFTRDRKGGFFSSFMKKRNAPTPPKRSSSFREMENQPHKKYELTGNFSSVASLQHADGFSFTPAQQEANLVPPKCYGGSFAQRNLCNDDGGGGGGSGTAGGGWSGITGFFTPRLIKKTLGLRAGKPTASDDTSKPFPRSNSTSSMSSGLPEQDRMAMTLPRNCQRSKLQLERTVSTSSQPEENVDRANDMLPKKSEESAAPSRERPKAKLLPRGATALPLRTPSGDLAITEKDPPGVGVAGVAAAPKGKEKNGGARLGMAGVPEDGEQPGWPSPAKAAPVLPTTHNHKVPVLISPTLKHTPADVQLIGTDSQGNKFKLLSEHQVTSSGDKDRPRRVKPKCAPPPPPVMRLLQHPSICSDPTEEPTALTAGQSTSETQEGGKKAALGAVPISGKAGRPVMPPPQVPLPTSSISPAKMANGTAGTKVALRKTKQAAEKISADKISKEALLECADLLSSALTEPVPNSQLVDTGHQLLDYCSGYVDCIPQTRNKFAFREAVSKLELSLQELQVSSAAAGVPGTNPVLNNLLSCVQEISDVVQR

Kd (ABL2): 1 to 10 µM
Kd (TNIK): < 0.1 µM
Kd (PLK 4): > 10 µM
Kd (MARK2): > 10 µM
Compound: Oc1ccc(-c2cc3c(Sc4cccc(Cl)c4)ncnc3[nH]2)cc1 [Compound L2]
